These results are taken from patent publication US12215116B2, “Arginase inhibitors and methods of use” (Merck Sharp & Dohme LLC, priority 2018, dated 2025).

pIC50: −log10 of the molar value.

In the assay the target is T1, Arginase (ARG1 enzyme) (Homo sapiens, UniProt P05089).
T1 construct: made in house; host or cells: Escherichia coli
T1 sequence (P05089 1-322): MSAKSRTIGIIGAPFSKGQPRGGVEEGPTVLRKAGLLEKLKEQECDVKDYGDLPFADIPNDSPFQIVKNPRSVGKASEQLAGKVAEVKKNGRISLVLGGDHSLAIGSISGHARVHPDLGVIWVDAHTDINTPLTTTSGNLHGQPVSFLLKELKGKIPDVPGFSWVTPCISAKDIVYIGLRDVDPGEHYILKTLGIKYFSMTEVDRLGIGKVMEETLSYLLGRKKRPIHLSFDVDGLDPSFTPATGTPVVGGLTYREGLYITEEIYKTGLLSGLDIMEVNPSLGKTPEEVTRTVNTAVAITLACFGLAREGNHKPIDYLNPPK
Kind of assay: Arginase Thioornithine Generating Assay (TOGA). Format: biochemical. The settings on record: 1.88 nM arginase, thioarginine substrate, fluorescence readout. The protocol:
Arginase Thioornithine Generating Assay (TOGA)
Compounds were serially diluted in ten 3-fold steps in DMSO starting from 10 mM DMSO stocks. Compound dilutions or DMSO alone were then dispensed from the dilution plate into a Greiner black 384-well assay plate (catalog #781086) using an Echo 555 acoustic liquid handler (Labcyte).
Arginase protein was recombinantly expressed in Escherichia coli. Purified protein was then diluted in assay buffer (50 mM Tris pH 7.5, 50 mM NaCl, 1 mM manganese chloride, 0.05% bovine serum albumin to obtain a final Arginase concentration of 1.88 nM. Arginase solution (20 μL) or buffer alone (20 μL) were dispensed to wells of the assay plate using a BioRAPTR liquid dispenser (Beckman Coulter). Assay plates containing compound and ARG1 enzyme were incubated at room temperature for 30 minutes. Afterwards, 5 μL of 2.5 mM thioarginine (Cayman Chemicals) in assay buffer were added to each well of the assay plate using a BioRAPTR liquid dispenser. Plates were incubated at room temperature for 60 minutes and reactions were quenched by addition of 15 μL of […] 7-Diethylamine-3-(4-maleimidophenyl)-4-methylcoumarin (Sigma Chemical) in 70% ethanol. Plates were briefly shaken to mix and the fluorescence was measured in an Spectramax plate reader (Molecular Devices) with a 410 nm excitation wavelength and an 490 nm emission wavelength.
Potencies were calculated by […] to the four parameter logistic IC50 equation.
Usually pIC50 stands for the negative decadic logarithm of the IC50, by convention in mol/L. A higher pIC50 goes with a small IC50. Take `O=C(O)[C@H]1NCCC[C@@H]1CCCB(O)O` (single isomer, unassigned) [Example 1D]: the pIC50 is 4.64.
Take `C[C@]1(CCCB(O)O)[C@@H](C(=O)O)NC[C@@H]1C(F)F` [Example 81, (2S,3R,4R)-3-(3-boronopropyl)-4-(difluoromethyl)-3-methylpyrrolidine-2-carboxylic acid]: the pIC50 was 6.86.
Consider `CC(C)(O)[C@H](N)C(=O)N[C@H]1CN[C@H](C(=O)O)[C@@H]1CCCB(O)O` [Example 39, (2S,3R,4R)-4-((S)-2-amino-3-hydroxy-3-methylbutanamido)-3-(3-boronopropyl)pyrrolidine-2-carboxylic acid], for which the pIC50 was 7.99.
`C[C@@]1(C(=O)O)NCC[C@@H]1CCCB(O)O` [Example 16B, (3S)-3-[3-(dihydroxyboranyl)propyl]-2-methyl-D-proline]: the pIC50 is 5.65.
In turn, `O=C(O)[C@@H]1NCC[C@H]1CCCB(O)O` [Example 15A, (3R)-3-[3-(dihydroxyboranyl)propyl]-D-proline] showed a pIC50 of less than 5.00.
Take `O=C(O)C1NCC[C@@H]1CCCB(O)O` (single isomer, unassigned) [Example 9B]: the pIC50 was 5.09.
With `CC[C@@H](C)[C@H](N)C(=O)N[C@H]1CN[C@H](C(=O)O)[C@@H]1CCCB(O)O` [Example 44, (2S,3R,4R)-4-((2S,3R)-2-amino-3-methylpentanamido)-3-(3-boronopropyl)pyrrolidine-2-carboxylic acid] the figure was 8.70; with `NC[C@@]1(CCCB(O)O)CCN[C@@H]1C(=O)O` [Example 85, (2S,3R)-3-(aminomethyl)-3-(3-boronopropyl)pyrrolidine-2-carboxylic acid], 8.14.
With `N[C@H](C(=O)N[C@H]1CN[C@H](C(=O)O)[C@@H]1CCCB(O)O)C1CCCC1` [Example 40, (2S,3R,4R)-4-((S)-2-amino-2-cyclopentylacetamido)-3-(3-boronopropyl)pyrrolidine-2-carboxylic acid] the figure was 9.11.
The compound `O=C(O)[C@H]1NCCO[C@H]1CCCB(O)O` [Example 52, (2S,3S)-2-(3-boronopropyl)morpholine-3-carboxylic acid] gave a pIC50 of 6.68.
In turn, `CC(C)[C@@H](N)C(=O)N[C@H]1CN[C@H](C(=O)O)[C@@H]1CCCB(O)O` [Example 46, (2S,3R,4R)-4-((R)-2-amino-3-methylbutanamido)-3-(3-boronopropyl)pyrrolidine-2-carboxylic acid] had a negative logarithm of the IC50 (pIC50) of 7.45.
`O=C(O)C[C@@]1(CCCB(O)O)[C@H](O)CN[C@@H]1C(=O)O` [Example 90, (2S,3R,4S)-3-(3-boronopropyl)-3-(carboxymethyl)-4-hydroxypyrrolidine-2-carboxylic acid] gave a pIC50 of 5.54.
Regarding `NC[C@@]1(CCCB(O)O)CN[C@@H]1C(=O)O` [Example 67, (2S,3S)-3-(aminomethyl)-3-(3-boronopropyl)azetidine-2-carboxylic acid], the pIC50 is 8.10.
Take `CN[C@H]1CN[C@H](C(=O)O)[C@@H]1CCCB(O)O` [Example 29, (2S,3R,4R)-3-(3-boronopropyl)-4-(methylamino)pyrrolidine-2-carboxylic acid]: the pIC50 is 7.70.
Compound `C[C@@]1(CCCB(O)O)CCN[C@]1(C)C(=O)O` [Example 72, (2S,3R)-3-(3-boronopropyl)-2,3-dimethylpyrrolidine-2-carboxylic acid] showed a negative-log IC50 (pIC50) of 6.92.
Take `C[C@H]1N[C@H](C(=O)O)[C@](C)(CCCB(O)O)[C@@H]1O` [Example 74B]: the pIC50 is less than 5.00.
With `O=C(O)[C@H]1NCC[C@@]1(CO)CCCB(O)O` [Example 83, (2S,3S)-3-(3-boronopropyl)-3-(hydroxymethyl)pyrrolidine-2-carboxylic acid] the figure was 7.71.
For `CN[C@H](C(=O)N[C@H]1CN[C@H](C(=O)O)[C@@H]1CCCB(O)O)C(C)C` [Example 43, (2S,3R,4R)-3-(3-boronopropyl)-4-((S)-3-methyl-2-(methylamino)butanamido)pyrrolidine-2-carboxylic acid], the pIC50 is 8.53.
With `O=C(O)[C@H]1NC[C@@H](O)[C@@]1(F)CCCB(O)O` [Example 92A, (2R,3R,4R)-3-(3-boronopropyl)-3-fluoro-4-hydroxypyrrolidine-2-carboxylic acid], the pIC50 is less than 5.00.
`O=C(O)C1CNCC1CCCB(O)O` (single isomer, unassigned) [Example 21C, 4-[3-(dihydroxyboranyl)propyl]pyrrolidine-3-carboxylic acid] gave a negative logarithm of the IC50 (pIC50) of less than 5.00.
`C[C@H]1N[C@H](C(=O)O)[C@](C)(CCCB(O)O)[C@H]1O` [Example 74A, (2S,3S,4R,5R)-3-(3-boronopropyl)-4-hydroxy-3,5-dimethylpyrrolidine-2-carboxylic acid] showed a negative logarithm of the IC50 (pIC50) of 7.31.
With `N#C[C@@]1(CCCB(O)O)CCN[C@@H]1C(=O)O` [Example 88, (2S,3S)-3-(3-boronopropyl)-3-cyanopyrrolidine-2-carboxylic acid] the figure was 7.87; with `CN(C)C[C@@H]1C[C@@H](CCCB(O)O)[C@@H](C(=O)O)N1` [Example 61, (2S,3R,5S)-3-(3-boronopropyl)-5-((dimethylamino)methyl)pyrrolidine-2-carboxylic acid], 6.36; with `CC(=O)N[C@H]1CN[C@H](C(=O)O)[C@@H]1CCCB(O)O` [Example 50, (2S,3R,4R)-4-acetamido-3-(3-boronopropyl)pyrrolidine-2-carboxylic acid], 6.61.
As for `N[C@H](C(=O)N[C@H]1CN[C@H](C(=O)O)[C@@H]1CCCB(O)O)C1Cc2ccccc2C1` [Example 48, (2S,3R,4R)-4-((S)-2-amino-2-(2,3-dihydro-1H-inden-2-yl)acetamido)-3-(3-boronopropyl)pyrrolidine-2-carboxylic acid], the pIC50 is 8.70.
In turn, `NC1CN[C@H](C(=O)O)C1CCCB(O)O` (single isomer, unassigned) [Example 33A] showed a pIC50 of less than 5.00.
Compound `O=C(O)[C@H]1NC[C@H](N2CCCC2)[C@H]1CCCB(O)O` [Example 25, (3′R,4′S,5′S)-4′-(3-boronopropyl)-[1,3′-bipyrrolidine]-5′-carboxylic acid] showed a negative-log IC50 (pIC50) of 6.28.
On to `NC1(C(=O)O)CNCC1(CO)CCCB(O)O` (single isomer, unassigned) [Example 94A, 3-amino-4-(3-boronopropyl)-4-(hydroxymethyl)pyrrolidine-3-carboxylic acid], for which the pIC50 is 5.51.
To `O=C(O)[C@@H]1NCCC[C@@H]1CCCB(O)O` (single isomer, unassigned) [Example 1A] belongs 5.44.
Compound `O=C(O)[C@]1(CCN2CCCCC2)CC(CCB(O)O)CN1` (stereo partly drawn) [Example 19, 4-[2-(dihydroxyboranyl)ethyl]-2-[2-(piperidin-1-yl)ethyl]proline] gave a pIC50 of 5.27.
With `CN(C)C[C@]1(C(=O)O)NCC[C@H]1CCCB(O)O` [Example 58, (2R,3R)-3-(3-boronopropyl)-2-((dimethylamino)methyl)pyrrolidine-2-carboxylic acid], the pIC50 is less than 5.00.
Compound `NC(=O)[C@@]1(CCCB(O)O)CCN[C@@H]1C(=O)O` [Example 89, (2S,3S)-3-(3-boronopropyl)-3-carbamoylpyrrolidine-2-carboxylic acid] gave a pIC50 of 6.54.
Compound `O=C(O)[C@H]1NCCC1CCCB(O)O` (stereo partly drawn) [Example 9, 3-[3-(dihydroxyboranyl)propyl]-L-proline] gave a pIC50 of 6.95.
On to `O=C(O)C1(CCN2CCCCC2)NCCC1CCCB(O)O` (stereo not drawn) [Example 11, 3-(3-boronopropyl)-2-(2-(piperidin-1-yl)ethyl)pyrrolidine-2-carboxylic acid], for which the pIC50 is 7.08.
Compound `O=C(O)C1CC(CCB(O)O)CCN1` (stereo not drawn) [Example 4, 4-[2-(dihydroxyboranyl)ethyl]piperidinyl-2-carboxylic acid] showed a negative-log IC50 (pIC50) of 4.70.
With `O=C(N[C@H]1CN[C@H](C(=O)O)[C@@H]1CCCB(O)O)[C@@H]1CCCN1` [Example 49, (2S,3R,4R)-3-(3-boronopropyl)-4-((S)-pyrrolidine-2-carboxamido)pyrrolidine-2-carboxylic acid] the figure was 7.89.
Compound `O=C(O)C1C(CCCB(O)O)CCN1CCN1CCCCC1` (stereo not drawn) [Example 10, 3-(3-boronopropyl)-1-(2-(piperidin-1-yl)ethyl)pyrrolidine-2-carboxylic acid] had a pIC50 of 4.89.
For the compound `CNC[C@@]1(CCCB(O)O)CCN[C@@H]1C(=O)O` [Example 87, (2S,3R)-3-(3-boronopropyl)-3-((methylamino)methyl)pyrrolidine-2-carboxylic acid], the pIC50 was 8.15.
For `O=C(O)C1(CCN2CCCCC2)NCCCC1CCCB(O)O` (stereo not drawn) [Example 2, 3-[3-(dihydroxyboranyl)propyl]-2-[2-(piperidin-1-yl)ethyl]piperidinyl-2-carboxylic acid], the negative logarithm of the IC50 (pIC50) was 6.40.
